Values of other authors, collected in publication PMC5354814, “In silico and in vitro drug screening identifies new therapeutic approaches for Ewing sarcoma” (Oncotarget, 2016).
“Also recorded” adds a separate entry of the source. Like-named read-outs stand apart in the source and are kept apart here.

How the values were obtained:
[1] = cited from earlier work; for LD50: PO
[2] = cited from earlier work; for tumors of the renal tubular epithelium: 12-month study, rats
Saccharomyces = system: Saccharomyces; set-up: method as in ref 18, ref 19; details: cited from earlier work

CC(=O)OC[C@H]1O[C@@H]([S-])[C@H](OC(C)=O)[C@@H](OC(C)=O)[C@@H]1OC(C)=O.CCP(CC)CC.[Au+] [Auranofin, auranofin]
LD50 ([1]; Mouse B6C3F1, F): 187 mg/kg
LD50 ([1]; Mouse B6C3F1, M): 190 mg/kg
LD50 ([1]; Mouse CF1, F): 225 mg/kg
acute oral LD50 ([1]; adult mice): 310 mg/kg
tumors of the renal tubular epithelium ([2]; 3.6 mg/kg/day): did not
tumors of the renal tubular epithelium ([2]; 23 mg/kg/day): tum ors of the renal tubular epithelium; also recorded: developed adenomas of the renal tubular epithelium
frequency of renal tubular cell karyomegaly and cytomegaly and renal adenoma ([2]; 24-month study in rats, auranofin 1.0 or 2.5 mg/kg/day orally, gold sodium thiomalate 2 or 6 mg/kg twice weekly): significant incr ease
mutation effects (Saccharomyces): no m utation effects
